Measurements: ChEMBL document CHEMBL3745595, “Flavoalkaloids and Flavonoids from Astragalus monspessulanus” (J Nat Prod, 2015)

Assays:
Hepatocyte = assay: Hepatoprotective activity against tert-butyl hydroperoxide-induced oxidative stress in Wistar rat hepatocytes assessed as cell viability at 60 ug/ml by tryphan blue exclusion method (reference value: 74%); type: functional; conditions: for viability at 60 µg/mL: read-out: Activity
[1] = Antioxidant activity assessed as reactive oxygen species scavenging activity; type: physicochemical

| Compound | Activity [1] | Activity (Hepatocyte) | viability at 60 µg/mL (Hepatocyte) |
| --- | --- | --- | --- |
| SILYMARIN [listing 1 of 2 here] |  | 182% |  |
| C[C@@H]1O[C@@H](OC[C@H]2O[C@@H](Oc3c(-c4ccc(O)cc4)oc4cc(O)cc(O)c4c3=O)[C@H](O[C@@H]3O[C@@H](C)[C@H](O)[C@@H](O)[C@H]3O)[C@@H](O)[C@H]2O)[C@H](O)[C@H](O)[C@H]1O | Active |  | 168% |
| C[C@@H]1O[C@@H](OC[C@H]2O[C@@H](Oc3c(-c4ccc(O)c(O)c4)oc4cc(O)cc(O)c4c3=O)[C@H](O[C@@H]3O[C@@H](C)[C@H](O)[C@@H](O)[C@H]3O)[C@@H](O)[C@H]2O)[C@H](O)[C@H](O)[C@H]1O | Active |  | 195% |
| SILYMARIN [listing 2 of 2 here] | Active |  |  |
| C[C@@H]1O[C@@H](OC[C@H]2O[C@@H](Oc3c(-c4ccc(O)c(O)c4)oc4cc(O[C@@H]5O[C@H](CO)[C@@H](O)[C@H](O)[C@H]5O)cc(O)c4c3=O)[C@H](O[C@@H]3O[C@@H](C)[C@H](O)[C@@H](O)[C@H]3O)[C@@H](O)[C@H]2O)[C@H](O)[C@H](O)[C@H]1O | Active |  | 186% |
| C[C@@H]1O[C@@H](OC[C@H]2O[C@@H](Oc3c(-c4ccc(O)c(O)c4)oc4c(CN5CCCC(O)C5=O)c(O)cc(O)c4c3=O)[C@H](O[C@@H]3O[C@@H](C)[C@H](O)[C@@H](O)[C@H]3O)[C@@H](O)[C@H]2O)[C@H](O)[C@H](O)[C@H]1O (stereo partly specified) | Active |  | 159% |

More lines, main results first:

| Activity [1] | Compound | Activity (Hepatocyte) | viability at 60 µg/mL (Hepatocyte) |
| --- | --- | --- | --- |
| Active | C[C@@H]1O[C@@H](OC[C@H]2O[C@@H](Oc3c(-c4ccc(O)cc4)oc4c(CN5CCCC(O)C5=O)c(O)cc(O)c4c3=O)[C@H](O[C@@H]3O[C@@H](C)[C@H](O)[C@@H](O)[C@H]3O)[C@@H](O)[C@H]2O)[C@H](O)[C@H](O)[C@H]1O (stereo partly specified) |  | 177% |
| Active | O=c1c(O[C@@H]2O[C@H](CO)[C@H](O)[C@H](O)[C@H]2O)c(-c2ccc(O)cc2)oc2cc(O)cc(O)c12 [TRIFOLIN] |  | 191% |
| Active | C[C@@H]1O[C@@H](OC[C@H]2O[C@@H](Oc3c(-c4ccc(O)c(O)c4)oc4cc(O)cc(O)c4c3=O)[C@H](O)[C@@H](O)[C@H]2O)[C@H](O)[C@H](O)[C@H]1O |  | 159% |
| Active | C[C@@H]1O[C@@H](OC[C@H]2O[C@@H](Oc3c(-c4ccc(O)c(O)c4)oc4cc(O)cc(O)c4c3=O)[C@H](O)[C@@H](O)[C@@H]2O)[C@H](O)[C@H](O)[C@H]1O [RUTIN] |  | 168% |
| Active | O=c1cc(-c2ccc(O)cc2)oc2cc(O[C@@H]3O[C@H](CO)[C@@H](O)[C@H](O)[C@H]3O)cc(O)c12 [APIGETRIN] |  | 177% |
| Active | C[C@@H]1O[C@@H](O[C@H]2[C@H](Oc3c(-c4ccc(O)cc4)oc4cc(O)cc(O)c4c3=O)O[C@H](COC(=O)CC(C)(O)CC(=O)O)[C@H](O)[C@@H]2O)[C@H](O)[C@H](O)[C@H]1O (stereo partly specified) |  | 155% |
| Active | C[C@@H]1O[C@@H](OC[C@H]2O[C@@H](Oc3c(-c4ccc(O)cc4)oc4cc(O[C@@H]5O[C@H](CO)[C@@H](O)[C@H](O)[C@H]5O)cc(O)c4c3=O)[C@H](O[C@@H]3O[C@@H](C)[C@H](O)[C@@H](O)[C@H]3O)[C@@H](O)[C@H]2O)[C@H](O)[C@H](O)[C@H]1O |  | 164% |
| Active | C[C@@H]1O[C@@H](O[C@H]2[C@H](Oc3c(-c4ccc(O)c(O)c4)oc4cc(O)cc(O)c4c3=O)O[C@H](COC(=O)CC(C)(O)CC(=O)O)[C@H](O)[C@@H]2O)[C@H](O)[C@H](O)[C@H]1O (stereo partly specified) |  | 182% |
